Experimental data taken from patent US20050109704A1, “Potable water delivery system with disinfection and residual discharge unit and method” (Pure H2O Bio-Technologies, Inc., priority 2003, published 2005).
“And” between values parts separate entries of the source, which are not always exact repeats. Equal values may be shown once.

Tests used:
E. coli = experiment: Iodine Disinfection of E. coli; format: cell-based, Escherichia coli; settings: ambient (˜23° C.); for Raw counts, Average / Raw counts, Treated Rep.: undiluted/10 mL analyzed
From the text: (§1) At CT values of 50, the Log 10 reductions were greater than 8.0. CT is a common measurement unit referring to concentration in parts per million multiplied by time (in minutes). CFU is known as colony forming units per milliliter. […] See references: Block, S. S., 1977. Disinfection, Sterilization and Preservation. Lea & Febiger, Philadelphia. 2nd edition.

E. faecalis = experiment: Iodine Disinfection of E. faecalis; format: cell-based, Enterococcus faecalis; settings: ambient (˜23° C.)
From the text: as §1

P. aeruginosa = experiment: Iodine Disinfection of P. aeruginosa; format: cell-based, Pseudomonas aeruginosa; settings: ambient (˜23° C.); for Raw counts, Average / Raw counts, Treated Rep.: undiluted/10 mL analyzed
From the text: as §1

[1] = system: Escherichia coli, Pseudomonas aeruginosa and, Enterococcus faecalis; experiment: Iodine disinfection of bacteria, summary by CT value; format: cell-based; settings: CT values of 50 (ppm x min)
From the text: as §1

[2] = system: waterborne microbial contamination; settings: 3-4 ppm for 12 min at 24° C. (CT value of about 48); cited from earlier work
[3] = 5 mg/L 5 min, undiluted/10 mL analyzed
[4] = 5 mg/L 10 min, undiluted/10 mL analyzed
[5] = 15 mg/L 5 min, undiluted/10 mL analyzed

In the case of `II`, the Log10/mL (E. coli; 5 mg/L 5 min) is reported as 1.2 Log10/mL, the Log10 removal (E. coli; 5 mg/L 5 min) is reported as 5.7 Log10 and the “cfu/mL, Average” value (E. coli; 5 mg/L 5 min) is reported as 1.7 × 10^1 cfu/mL. The “Raw counts, Average” value (E. coli; 5 mg/L 5 min) was 175, the “Raw counts, Treated Rep.” value (E. coli; 5 mg/L 5 min) was 171 and 168 and 185 and the Log10/mL (E. coli; 5 mg/L 10 min) was under −1.0 Log10/mL. For the same molecule, the Log10 removal (E. coli; 5 mg/L 10 min) was over 8.0 Log10, the “cfu/mL, Average” value (E. coli; 5 mg/L 10 min) was under 0.1 cfu/mL and the “Raw counts, Average” value (E. coli; 5 mg/L 10 min) was 0. The “Raw counts, Treated Rep.” value (E. coli; 5 mg/L 10 min) was 0, the Log10/mL (E. coli; 5 mg/L 15 min) was under −1.0 Log10/mL and the Log10 removal (E. coli; 5 mg/L 15 min) was over 8.0 Log10. The “cfu/mL, Average” value (E. coli; 5 mg/L 15 min) was under 0.1 cfu/mL, the “Raw counts, Average” value (E. coli; 5 mg/L 15 min) was 0 and the “Raw counts, Treated Rep.” value (E. coli; 5 mg/L 15 min) was 0. The Log10/mL (E. coli; 15 mg/L 5 min) was under −1.0 Log10/mL, the Log10 removal (E. coli; 15 mg/L 5 min) was over 8.0 Log10 and the “cfu/mL, Average” value (E. coli; 15 mg/L 5 min) was under 0.1 cfu/mL. The “Raw counts, Average” value (E. coli; 15 mg/L 5 min) was 0, the “Raw counts, Treated Rep.” value (E. coli; 15 mg/L 5 min) was 0 and the Log10/mL (E. faecalis; 5 mg/L 5 min) was 0.6 Log10/mL. The Log10 removal (E. faecalis; 5 mg/L 5 min) was 6.2 Log10, the “cfu/mL, Average” value (E. faecalis; 5 mg/L 5 min) was 3.9 × 10^0 cfu/mL and the “Raw counts, Average” value (E. faecalis; [3]) was 39. The “Raw counts, Treated Rep.” value (E. faecalis; [3]) was 49 and 38 and 31, the Log10/mL (E. faecalis; 5 mg/L 10 min) was under −1.0 Log10/mL and the Log10 removal (E. faecalis; 5 mg/L 10 min) was over 7.8 Log10. The “cfu/mL, Average” value (E. faecalis; 5 mg/L 10 min) was under 0.1 cfu/mL, the “Raw counts, Average” value (E. faecalis; [4]) was 0 and the “Raw counts, Treated Rep.” value (E. faecalis; [4]) was 0. The Log10/mL (E. faecalis; 5 mg/L 15 min) was under −1.0 Log10/mL, the Log10 removal (E. faecalis; 5 mg/L 15 min) was over 7.8 Log10 and the “Raw counts, Average” value (E. faecalis; 5 mg/L 15 min) was 0. The “Raw counts, Treated Rep.” value (E. faecalis; 5 mg/L 15 min) was 0, the “cfu/mL, Average” value (E. faecalis; 5 mg/L 15 min) was under 0.1 cfu/mL and the Log10/mL (E. faecalis; 15 mg/L 5 min) was under −1.0 Log10/mL. The Log10 removal (E. faecalis; 15 mg/L 5 min) was over 7.8 Log10, the “cfu/mL, Average” value (E. faecalis; 15 mg/L 5 min) was under 0.1 cfu/mL and the “Raw counts, Average” value (E. faecalis; [5]) was 0. The “Raw counts, Treated Rep.” value (E. faecalis; [5]) was 0, the Log10/mL (P. aeruginosa; 5 mg/L 5 min) was 1.2 Log10/mL and the Log10 removal (P. aeruginosa; 5 mg/L 5 min) was 5.7 Log10. The “cfu/mL, Average” value (P. aeruginosa; 5 mg/L 5 min) was 1.7 × 10^1 cfu/mL, the “Raw counts, Average” value (P. aeruginosa; 5 mg/L 5 min) was 175 and the “Raw counts, Treated Rep.” value (P. aeruginosa; 5 mg/L 5 min) was 171 and 168 and 185. For the same molecule, the Log10/mL (P. aeruginosa; 5 mg/L 10 min) was under −1.0 Log10/mL, the Log10 removal (P. aeruginosa; 5 mg/L 10 min) was over 7.9 Log10 and the “cfu/mL, Average” value (P. aeruginosa; 5 mg/L 10 min) was under 0.1 cfu/mL. The “Raw counts, Average” value (P. aeruginosa; 5 mg/L 10 min) was 0, the “Raw counts, Treated Rep.” value (P. aeruginosa; 5 mg/L 10 min) was 0 and the Log10/mL (P. aeruginosa; 5 mg/L 15 min) was under −1.0 Log10/mL. For the same molecule, the Log10 removal (P. aeruginosa; 5 mg/L 15 min) was over 7.9 Log10, the “cfu/mL, Average” value (P. aeruginosa; 5 mg/L 15 min) was under 0.1 cfu/mL and the “Raw counts, Average” value (P. aeruginosa; 5 mg/L 15 min) was 0. For the same molecule, the “Raw counts, Treated Rep.” value (P. aeruginosa; 5 mg/L 15 min) was 0, the Log10/mL (P. aeruginosa; 15 mg/L 5 min) was under −1.0 Log10/mL and the Log10 removal (P. aeruginosa; 15 mg/L 5 min) was over 7.9 Log10. The “cfu/mL, Average” value (P. aeruginosa; 15 mg/L 5 min) was under 0.1 cfu/mL, the “Raw counts, Average” value (P. aeruginosa; 15 mg/L 5 min) was 0 and the “Raw counts, Treated Rep.” value (P. aeruginosa; 15 mg/L 5 min) was 0. For the same molecule, the “Log 10 reductions” value [1] was “greater than 8.0 Log 10” and the “waterborne microbial contamination reduced” value [2] was at least 7 logs.
